# Tested on: P. aeruginosa PA14
# Assay: Mouse burn and infection (BI) model, survival
# Assay type: in vivo, mice
# Experimental: Burn wound infection in mice can be established by subcutaneous or topical administration of the bacteria to the sites of the burn. […] Six-week old CD-1 male mice were used.
# To induce infection, the mice were placed under general anesthesia via intraperitonial injection of 40 mg/kg Pentobarbital, the ventral surface was shaved, and a central skin fold elevated was simultaneously compressed from both sides for 5 seconds using two 2×2 cm metal blocks preheated to 95-100° C., to produce a non-lethal 5-8% full thickness burn with negligible focal necrosis of the underlying muscle or damage to underlying visceral organs. IP saline was administered for fluid resuscitation for ≧5% total body surface burns: avoiding vital structures, saline was injected into the left lower quadrant of the abdominal area of the anesthetized animal post-burn. This burn procedure was followed by mid-eschar inoculation of 100 μL of bacterial suspension containing ˜5×10^5 CFU. The animals were returned to their cages and provided mouse chow and water ad libitum. Animals typically recover from the anesthesia within 20 minutes post-administration. Criteria used to evaluate anesthesia recovery are state of alertness, mobility, and reaction to surrounding stimuli. Mice were monitored twice a day for symptoms and deaths, with increased monitoring every 6-8 hours during the period of greatest potential for infection and clinical disease.
# The mouse full-thickness skin thermal injury infection model was used to test if 2AA restricts P, aeruginosa virulence. This model is predictable and reproducible; clinically relevant; and can lead to MODS and mortality. Briefly, a ˜15% total burn surface area (TBSA) thermal scalding injury is produced on the abdominal skin, leaving the underlying muscle intact, and the inoculum is delivered into the scald eschar. […]
compound,measurement,setting,value
"CC(=O)c1ccccc1N [2AA, 2′-aminoacetophenone]",protection (survival curves),"10 mM solutions IV 4 days pre-BI (FIGS. 11A, 11B)",significantly greater
same,time to succumb to PA14 lethality,2AA injected in the scald eschar 1 hr post BI (FIG. 7),significantly later
same,survival,IP 2AA injection 3 days pre-BI,50%
same,survival,IP 2AA injection 8 days pre-BI,50%
same,mortality,IP 2AA injection up to 4 weeks pre-BI,50%
same,mortality,"IP 500 μl of 20 mM, 2 days pre-BI, controls ~90%",60%
same,survival to PA14 infection,"IV 100 μl of 10 mM, 4 days pre-BI",~90%
same,average survival after 5 days,"IV tail vein 100 μl of 10 mM, four days prior to burn/infection, n=8-10, control 10% (FIG. 9)",50%
same,protection (survival),"single IP injection 500 μl of 20 mM, 6 hours pre-BI",no protection
